Where no end group is shown, it is not given here.
Tested on: rats
Assay: Barnes circular platform test
Assay type: in vivo, rat
Settings: 50 nmol intracerebroventricular; memory test trial (day 8) vs last trial of training (day −1); P<0.01
Description: All rats were anesthetized using 40 mg/kg of pentobarbital (Somnotol; MTC Pharmaceuticals, Cambridge, Ontario) intraperitoneally. Body temperature was maintained at 37° C. Aβ(25-35) (50 nmol in 10 μL of saline) was injected bilaterally into the lateral ventricles. Aβ(25-35) was prepared according to established methods (Sigurdsson, et al. (1997) supra). […] (1997) supra). […] After wound suture, all rats received […] of buprenorphine intramuscularly and were allowed to recover from surgery for 7 days. Learning and memory deficits were assessed using the Barnes circular platform. There are twenty holes evenly located along the border of circular platform with a hidden escape box beneath one of the holes. The circular platform is equipped with colored cues on the surrounding wall. A bright light combined with wind from a fan hung on the ceiling above the platform provides the incentive for the rats to find the hidden box and enter the escape hole. During each trial, the rats were initially placed in the center of the platform under an inverted box, then the box was lifted up and the rat is allowed to find the hole for up to 4 minutes. The latency (time to enter the escape hole) was recorded during the trial. There was a training period (trials 1-14) performed at day −7 to day −1 before surgery (day 0). PDTC or vehicle treatment was given 30 minutes before Aβ(25-35) injections and from days 1 to 7 post-surgery. Spatial memory was then tested on day 8 (trial 15) with the escape hole placed in the same location. Spatial learning was examined by re-testing (re-acquisition) from days 9 to 15 (trials 16-29) with the escape box relocated at […] from the original location. Digital photographs were taken using a light microscope (Leitz Diaplan). […] Also, relative optical density measurements and numbers of stained cells or accumulations were measured in entire brain areas for quantitative analysis and statistically analyzed with ANOVA and Tukey post hoc test with a significance level of P<0.05. […] The staircase data are expressed as the mean±SEM. […] Data are expressed as mean±SEM. […]

GSNKGAIIGLM [Aβ, β-amyloid fragment (25-35), 50 nmol injected bilaterally into the lateral ventricles of rats]
latency (time to enter the escape hole): increased latency

Reference: US20060282906A1, “Non-transgenic rodent model of Alzheimer's disease” (priority 2005, published 2006)
